From ChEMBL document CHEMBL1138591, “Hair growth stimulator property of thienyl substituted pyrazole carboxamide derivatives as a CB1 receptor antagonist with in vivo antiobesity effect” (Bioorg Med Chem Lett, 2009)
Blank lines part the entries; values can stand above or below the molecule they belong to. The source made the active and inactive calls. No cut-off for these calls is given here.

Experiments:
Rattus norvegicus = assay: Antiobesity activity in Zucker fa/fa rat assessed as inhibition of 5% sucrose solution intake at 10 mg/kg administered as single dose up to 4 hrs relative to control; format: functional
Cannabinoid receptor 2 = Cannabinoid receptor 2 (Homo sapiens, UniProt P34972); assay: Antagonist activity at human cannabinoid CB2 receptor expressed in CHOK1 cells assessed as cAMP activity; format: functional, cell-based, CHO-K1
Cannabinoid receptor 1 = Cannabinoid receptor 1 (Homo sapiens, UniProt P21554); assay: Antagonist activity at human cannabinoid CB1 receptor expressed in CHOK1 cells assessed as cAMP activity; format: functional, cell-based, CHO-K1
Mus musculus [1] = species: Mus musculus; details: Swiss albino, 1 mg/kg
Description: Inhibition of WIN-55212-2-induced hypothermia in Swiss albino mouse assessed as change in body temperature at 1 mg/kg po

[2] = Half life in fasted Zucker fa/fa rat at 30 mg/kg, po; format: ADME, organism-based; parameters: dose 30 mg/kg, route oral; details: in vivo
Mus musculus [3] = assay: Effect on WIN-55212-2-induced locomotor activity in Swiss albino mouse assessed as number of square crossed at 3 mg/kg po up to 300 seconds (RbV=20.67 +/- 3.38 squares); format: functional
Mus musculus [4] = assay: Inhibition of WIN-55212-2-induced catalepsy in Swiss albino mouse assessed as immobility on ring at 10 mg/kg po up to 300 seconds by ring test; format: functional; parameters: scale not given: the % may be the effect or the level left
Mus musculus [5] = assay: Inhibition of WIN-55212-2-induced catalepsy in Swiss albino mouse assessed as immobility on ring at 3 mg/kg po up to 300 seconds by ring test; format: functional; parameters: scale not given: the % may be the effect or the level left
[6] = Drug level in fasted Zucker fa/fa rat brain assessed per gram of brain at 30 mg/kg, po after 3 hrs; format: ADME, organism-based; parameters: dose 30 mg/kg, route oral; details: read-out: Drug uptake
Mus musculus [7] = species: Mus musculus; details: Swiss albino, 10 mg/kg
Description: Inhibition of WIN-55212-2-induced hypothermia in Swiss albino mouse assessed as change in body temperature at 10 mg/kg po

Mus musculus [8] = assay: Inhibition of WIN-55212-2-induced analgesia in Swiss albino mouse assessed as maximal possible effect at 5 mg/kg po by hot plate method; format: functional; parameters: scale not given: the % may be the effect or the level left
Mus musculus [9] = assay: Inhibition of WIN-55212-2-induced analgesia in Swiss albino mouse assessed as maximal possible effect at 3 mg/kg po by hot plate method; format: functional; parameters: scale not given: the % may be the effect or the level left
Mus musculus [10] = assay: Inhibition of WIN-55212-2-induced analgesia in Swiss albino mouse assessed as maximal possible effect at 1 mg/kg po by hot plate method; format: functional; parameters: scale not given: the % may be the effect or the level left
[11] = Drug level in fasted Zucker fa/fa rat white adipose tissue at 30 mg/kg, po after 3 hrs; format: ADME, organism-based; parameters: dose 30 mg/kg, route oral; details: read-out: Drug uptake
[12] = AUC (0 to infinity) in fasted Zucker fa/fa rat at 30 mg/kg, po; format: ADME, organism-based; parameters: time infinity, dose 30 mg/kg, route oral; details: plasma
Mus musculus [13] = assay: Hair growth stimulatory activity in high fat diet-induced C57BL/6J mouse at 10 mg/kg, po administered once daily for 28 days measured after 28 days; format: functional, organism-based; parameters: dose 10 mg/kg
Mus musculus [14] = assay: Hair growth stimulatory activity in high fat diet-induced C57BL/6J mouse assessed as bald area at 10 mg/kg, po administered once daily for 28 days measured after 28 days (Rvb=0.346 +/- 0.079 cm'2); format: functional
Mus musculus [15] = species: Mus musculus; details: Swiss albino, 5 mg/kg
Description: Inhibition of WIN-55212-2-induced hypothermia in Swiss albino mouse assessed as change in body temperature at 5 mg/kg po

[16] = Drug level in fasted Zucker fa/fa rat brain at 30 mg/kg, po after 3 hrs; format: ADME, organism-based; parameters: dose 30 mg/kg, route oral; details: read-out: Drug uptake
Mus musculus [17] = assay: Antiobesity activity in high fat diet-induced obese C57BL/6J mouse model assessed as reduction in food intake at 10 mg/kg, po administered once daily for 28 days; format: functional, organism-based; parameters: dose 10 mg/kg
Mus musculus [18] = species: Mus musculus; details: Swiss albino, 3 mg/kg
Description: Inhibition of WIN-55212-2-induced hypothermia in Swiss albino mouse assessed as change in body temperature at 3 mg/kg po

Mus musculus [19] = assay: Inhibition of WIN-55212-2-induced catalepsy in Swiss albino mouse assessed as immobility on ring at 1 mg/kg po up to 300 seconds by ring test; format: functional; parameters: scale not given: the % may be the effect or the level left
[20] = Cmax in fasted Zucker fa/fa rat at 30 mg/kg, po; format: ADME, organism-based; parameters: dose 30 mg/kg, route oral; details: in vivo
Mus musculus [21] = assay: Inhibition of WIN-55212-2-induced catalepsy in Swiss albino mouse assessed as immobility on ring at 5 mg/kg po up to 300 seconds by ring test; format: functional; parameters: scale not given: the % may be the effect or the level left
[22] = Tmax in fasted Zucker fa/fa rat at 30 mg/kg, po; format: ADME, organism-based; parameters: dose 30 mg/kg, route oral; details: in vivo
Mus musculus [23] = assay: Inhibition of WIN-55212-2-induced analgesia in Swiss albino mouse assessed as maximal possible effect at 10 mg/kg po by hot plate method; format: functional; parameters: scale not given: the % may be the effect or the level left
Mus musculus [24] = assay: Effect on WIN-55212-2-induced locomotor activity in Swiss albino mouse assessed as number of square crossed at 5 mg/kg po up to 300 seconds (RbV=20.67 +/- 3.38 squares); format: functional
Mus musculus [25] = assay: Effect on WIN-55212-2-induced locomotor activity in Swiss albino mouse assessed as number of square crossed at 10 mg/kg po up to 300 seconds (RbV=20.67 +/- 3.38 squares); format: functional
[26] = Drug level in fasted Zucker fa/fa rat white adipose tissue assessed per gram of tissue at 30 mg/kg, po after 3 hrs; format: ADME, organism-based; parameters: dose 30 mg/kg, route oral; details: read-out: Drug uptake
[27] = Plasma concentration in fasted Zucker fa/fa rat at 30 mg/kg, po after 3 hrs; format: ADME, organism-based; parameters: dose 30 mg/kg, route oral
Mus musculus [28] = assay: Hair growth stimulatory activity in high fat diet-induced C57BL/6J mouse at 10 mg/kg administered tropically for 28 days measured after 28 days; format: functional, organism-based; parameters: dose 10 mg/kg
Mus musculus [29] = assay: Antiobesity activity in high fat diet-induced obese C57BL/6J mouse model assessed as reduction in body weight gain at 10 mg/kg, po administered once daily for 28 days; format: functional, organism-based; parameters: dose 10 mg/kg
Mus musculus [30] = assay: Effect on WIN-55212-2-induced locomotor activity in Swiss albino mouse assessed as number of square crossed at 1 mg/kg po up to 300 seconds (RbV=20.67 +/- 3.38 squares); format: functional

Sequence of Cannabinoid receptor 1 (P21554 whole entry): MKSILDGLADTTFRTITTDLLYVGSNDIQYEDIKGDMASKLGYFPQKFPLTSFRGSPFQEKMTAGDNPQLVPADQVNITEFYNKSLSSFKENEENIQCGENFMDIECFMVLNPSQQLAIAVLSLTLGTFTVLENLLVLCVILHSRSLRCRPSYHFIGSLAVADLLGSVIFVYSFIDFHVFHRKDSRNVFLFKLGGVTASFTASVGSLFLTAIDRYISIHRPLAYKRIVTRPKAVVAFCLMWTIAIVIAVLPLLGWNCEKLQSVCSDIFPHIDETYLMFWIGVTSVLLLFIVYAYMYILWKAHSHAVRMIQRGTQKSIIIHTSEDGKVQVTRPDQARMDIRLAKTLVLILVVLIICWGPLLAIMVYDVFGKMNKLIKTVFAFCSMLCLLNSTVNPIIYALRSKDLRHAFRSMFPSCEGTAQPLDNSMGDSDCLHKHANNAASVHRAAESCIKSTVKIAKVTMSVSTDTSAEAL
Sequence of Cannabinoid receptor 2 (P34972 whole entry): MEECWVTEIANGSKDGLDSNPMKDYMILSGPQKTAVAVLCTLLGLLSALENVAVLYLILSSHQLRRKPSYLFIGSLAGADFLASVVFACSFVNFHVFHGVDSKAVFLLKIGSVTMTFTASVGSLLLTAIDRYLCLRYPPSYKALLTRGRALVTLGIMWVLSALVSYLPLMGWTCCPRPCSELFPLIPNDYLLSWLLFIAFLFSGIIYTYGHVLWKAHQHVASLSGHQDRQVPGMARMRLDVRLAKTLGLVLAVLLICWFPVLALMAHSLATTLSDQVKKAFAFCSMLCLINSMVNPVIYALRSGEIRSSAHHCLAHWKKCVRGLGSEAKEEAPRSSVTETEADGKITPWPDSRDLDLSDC

- EC50 (Cannabinoid receptor 2): 23.2 µM
- EC50 (Cannabinoid receptor 1): 400 nM
Compound: Cc1c(C(=O)NN2CCCCC2)nn(-c2ccc(Cl)cc2Cl)c1-c1ccc(Br)s1
- inhibition in vivo at 10 mg/kg (Rattus norvegicus): 37.8%

- EC50 (Cannabinoid receptor 2): 19.5 µM
- EC50 (Cannabinoid receptor 1): 510 nM
Compound: CCc1c(C(=O)NN2CCCCC2)nn(-c2ccc(Cl)cc2Cl)c1-c1ccc(Br)s1
- inhibition in vivo at 10 mg/kg (Rattus norvegicus): 39.2%

- EC50 (Cannabinoid receptor 2): 29.4 µM
- EC50 (Cannabinoid receptor 1): 320 nM
Compound: Cc1c(C(=O)NN2CCCCC2)nn(-c2ccc(Cl)cc2Cl)c1-c1ccc(I)s1
- inhibition in vivo at 10 mg/kg (Rattus norvegicus): 42.1%

- EC50 (Cannabinoid receptor 2): 7.55 µM
- EC50 (Cannabinoid receptor 1): 1330 nM
Compound: Cc1c(C(=O)NN2CCCCC2)nn(-c2ccc(Cl)cc2Cl)c1-c1cccs1
- inhibition in vivo at 10 mg/kg (Rattus norvegicus): 12.4%

- EC50 (Cannabinoid receptor 2): 15.7 µM
- EC50 (Cannabinoid receptor 1): 800 nM
Compound: Cc1c(C(=O)NN2CC3CCCC3C2)nn(-c2ccc(Cl)cc2Cl)c1-c1ccc(Cl)s1 (stereo unspecified)
- inhibition in vivo at 10 mg/kg (Rattus norvegicus): 26.3%

- EC50 (Cannabinoid receptor 2): 25.9 µM
- EC50 (Cannabinoid receptor 1): 540 nM
Compound: CCc1c(C(=O)NN2CCCCC2)nn(-c2ccc(Cl)cc2Cl)c1-c1ccc(Cl)s1
- inhibition in vivo at 10 mg/kg (Rattus norvegicus): 31.3%

- EC50 (Cannabinoid receptor 2): 20.9 µM
- EC50 (Cannabinoid receptor 1): 1000 nM
Compound: Cc1c(C(=O)NN2CCCC2)nn(-c2ccc(Cl)cc2Cl)c1-c1ccc(Cl)s1
- inhibition in vivo at 10 mg/kg (Rattus norvegicus): 34.3%

- EC50 (Cannabinoid receptor 2): 7.43 µM
- EC50 (Cannabinoid receptor 1): 690 nM
Compound: Cc1c(C(=O)NN2CCOCC2)nn(-c2ccc(Cl)cc2Cl)c1-c1ccc(Cl)s1
- inhibition in vivo at 10 mg/kg (Rattus norvegicus): 31.5%

- half-life [2]: 1250 min
- concentration at 3 h [6]: 640 ng/g
- concentration at 3 h [11]: 980 ng/mL
- EC50 (Cannabinoid receptor 2): 23.7 µM
- AUC(0-inf) [12]: 12400 ng·h/mL
- concentration at 3 h [16]: 210 ng/mL
- Cmax [20]: 520 ng/mL
- Tmax [22]: 1.4 h
- concentration at 3 h [26]: 2970 ng/g
- EC50 (Cannabinoid receptor 1): 580 nM
- concentration at 3 h [27]: 850 ng/mL
Compound: Cc1c(C(=O)NN2CCCCC2)nn(-c2ccc(Cl)cc2Cl)c1-c1ccc(Cl)s1
- deltaT (Mus musculus [1]): 2.56 °C
- inhibition in vivo at 10 mg/kg (Rattus norvegicus): 48%
- Activity (Mus musculus [3]): 109.2
- Activity (Mus musculus [4]): 41.8%
- Activity (Mus musculus [5]): 73.13%
- deltaT (Mus musculus [7]): 0.23 °C
- Activity (Mus musculus [8]): 4.12%
- Activity (Mus musculus [9]): 12.28%
- Activity (Mus musculus [10]): 34.84%
- Activity (Mus musculus [13]): Active
- Activity (Mus musculus [14]): 0.011 cm2
- deltaT (Mus musculus [15]): 0.23 °C
- Activity (Mus musculus [17]): Active
- deltaT (Mus musculus [18]): 1.92 °C
- Activity (Mus musculus [19]): 80.73%
- Activity (Mus musculus [21]): 58.13%
- Activity (Mus musculus [23]): 4.35%
- Activity (Mus musculus [24]): 126.5
- Activity (Mus musculus [25]): 171.4
- Activity (Mus musculus [28]): inactive
- Activity (Mus musculus [29]): Active
- Activity (Mus musculus [30]): 69.8

- concentration at 3 h [11]: 1400 ng/mL
- concentration at 3 h [16]: 150 ng/mL
- concentration at 3 h [27]: 400 ng/mL
Compound: Cc1c(C(=O)NN2CCCCC2)nn(-c2ccc(Cl)cc2Cl)c1-c1ccc(Cl)cc1 [RIMONABANT]
- inhibition in vivo at 10 mg/kg (Rattus norvegicus): 40.1%
- Activity (Mus musculus [14]): 0.156 cm2
- Activity (Mus musculus [28]): inactive

- EC50 (Cannabinoid receptor 2): 12.8 µM
- EC50 (Cannabinoid receptor 1): 1100 nM
Compound: Cc1c(C(=O)NN2CCCCCC2)nn(-c2ccc(Cl)cc2Cl)c1-c1ccc(Cl)s1
- inhibition in vivo at 10 mg/kg (Rattus norvegicus): 20.1%
